Experimental data published in US20210115509A1, “BIOMARKER FOR IDENTIFYING SPECIFIC EXPOSURE TO KETONES AND METHOD OF IDENTIFICATION USING THE SAME” (KOREA INSTITUTE OF SCIENCE AND TECHNOLOGY, priority 2019, published 2021).

Assays:
[1] = tested on: BEAS-2B human bronchial epithelial cell line; test: MTT assay, cytotoxicity of ketone compounds in BEAS-2B cell line; assay type: cell-based
Method: BEAS-2B (Korean Cell Line Bank), a human bronchial epithelial cell line, was cultured using RPMI 1640 medium (Gibco, USA) supplemented with 10% FBS until the cells grew to about a confluence of 70 to 80% in a 100 mm dish.
Among ketones belonging to mVOCs (microbial volatile organic compounds) exposed to the environment, acetone, 2-butanone, 2-pentanone, 2-hexanone and 2-heptanone were selected, and the chemicals were dissolved in filtered distilled water (DW). A vehicle concentration was set to 0.1% or less in all experiments.
MTT assay using a BEAS-2B cell line was performed in accordance with the method of Mossman et al. (J. Immunol. Methods, 65, 55-63, 1983).
Specifically, the cells were seeded at a density of 3.5×10^4 cells/well in a 24-well plate and treated with the five ketone compounds dissolved in filtered distilled water, prepared in Example 1-2. After 48 hours, the result was mixed with 5 mg/ml of MTT (3-4,5-dimethylthiazol-2,5-diphenyltetrazolium bromide), added to a tube and incubated at 37° C. for 3 hours. Then, the medium was removed, the formed formazan crystal was dissolved in 500 μl of DMSO, and then 100 μl of the solution was transferred to a 96-well plate to measure an OD (optical density) value at 540 nm.

[2] = tested on: BEAS-2B human bronchial epithelial cell line; test: Gene expression change by high-throughput RNA sequencing (NextSeq 500) in ketone-exposed BEAS-2B cells; assay type: cell-based
Method: RNA was extracted from cell samples of ketone-exposed and non-ketone-exposed groups using a TRIzol reagent (Life Technologies, USA) in accordance with the manufacturer's directions to isolate total RNA and the total RNA was purified using a RNeasy mini kit (Qiagen, USA). The concentration of each total RNA sample was determined by a ND-2000 spectrophotometer (Thermo Inc., DE, USA) as a spectrophotometer and Agilent 2100 Bioanalyzer (Agilent Technologies, USA).
The establishment of libraries from the total RNA obtained in Example 2-1 in the experimental group and the normal control group exposed to the ketones was carried out using a QuantSeq 3′ mRNA-Seq Library Prep Kit (Lexogen, Inc., Austria) in accordance with the manufacturer's directions. 500 ng of the total RNA was hybridized with an oligo-dT primer including an Illumina-compatible sequence at the 5′ end of RNA, followed by reverse transcription. After degradation of the RNA template, a second strand was synthesized using a random primer including an Illumina-compatible linker sequence at the 5′ end thereof. Double-stranded libraries were purified using magnetic beads to remove all reaction components. The library was amplified in order to add the entire adapter sequence required for cluster production, and the completed cDNA library was purified from the PCR components.
Sequencing was performed by high-throughput sequencing as single-end 75 sequencing using a NextSeq 500 (IIlumina, Inc., USA). Read count (RC) data was processed based on the quantile normalization method using EdgeR in R (R development Core Team, 2016) using Bioconductor (Gentleman et al., 2004). Gene classification was based on searches performed on DAVID (http://david.abcc.ncifcrf.gov/) and the Medline database (http://www.ncbi.nlm.nih.gov/).
The extracted data were analyzed through normalization using Agilent GeneSpring GX 12.6.1 (Agilent technologies, CA, USA) to analyze the expression pattern of each gene.

[3] = IC5 conc.: Acetone 5.38, 2-Butanone 22.27, 2-Pentanone 5.24, 2-Hexanone 14.82, 2-Heptanone 5.05 mM
[4] = IC20 conc.: Acetone 71.90, 2-Butanone 106.21, 2-Pentanone 39.38, 2-Hexanone 52.51, 2-Heptanone 20.22 mM

## CCCC(C)=O [2-Pentanone, 2-pentanone]
[1]; human, 48 h
  concentration (105) providing a survival rate (viability) of 95%: 5240 µM
  concentration (1020) providing a survival rate (viability) of 80%: 39330 µM
[2]; [3]
  Fold change ADRA2A (NM_000681): 0.179
  Fold change ATRNL1 (NR_074088): 4.158
  Fold change C12orf79 (NR_046159): 0.213
  Fold change C14orf80 (NR_046159): 0.354
  Fold change CALML3 (NM_001286399): 0.354
  Fold change CCDC184 (NM_001013635): 4.501
  Fold change CD37 (NM_001040031): 2.028
  Fold change CDHR1 (NM_001171971): 0.216
  Fold change CHL1 (NM_001253387): 0.335
  Fold change COL4A3 (NM_000091): 2.229
  Fold change CRLF2 (NM_022148): 0.355
  Fold change CSF3R (NM_172313): 0.354
  Fold change DNMBP-AS1 (NR_024130): 2.406
  Fold change EGR1 (NM_001964): 0.419
  Fold change GNA14 (NM_004297): 8.261
  Fold change LOC728752 (NR_036504): 7.322
  Fold change PAX8 (NM_003466): 2.723
  Fold change PRRT3-AS1 (NR_046734): 2.817
  Fold change RBP3 (NM_002900): 0.354
  Fold change SEPT14 (NM_207366): 0.214
  Fold change SERPINA12 (NM_001304461): 0.354
  Fold change SLC13A4 (NM_012450): 8.995
  Fold change SPOCK2 (NM_001244950): 4.031
  Fold change TSPAN1 (NM_005727): 4.281
  Fold change USP12-AB1 (NR_046647): 7.329
  Fold change VIPR†-AS1 (NR_046654): 0.354
  Fold change XIRP1 (NM_001198621): 0.354
  Fold change ZFP69B (NM_023070): 2.472
  Fold change ZNF432 (NM_014650): 4.086
  Fold change ZNF487 (NR_026693): 0.354
[2]; [4]
  Fold change ADRA2A (NM_000681): 0.184
  Fold change ATRNL1 (NR_074088): 2.665
  Fold change C12orf79 (NR_046159): 0.216
  Fold change C14orf80 (NR_046159): 0.356
  Fold change CALML3 (NM_001286399): 0.356
  Fold change CCDC184 (NM_001013635): 2.387
  Fold change CD37 (NM_001040031): 3.272
  Fold change CDHR1 (NM_001171971): 0.223
  Fold change CHL1 (NM_001253387): 0.273
  Fold change COL4A3 (NM_000091): 5.033
  Fold change CRLF2 (NM_022148): 0.359
  Fold change CSF3R (NM_172313): 0.356
  Fold change DNMBP-AS1 (NR_024130): 8.289
  Fold change EGR1 (NM_001964): 0.332
  Fold change GNA14 (NM_004297): 6.776
  Fold change LOC728752 (NR_036504): 5.683
  Fold change PAX8 (NM_003466): 2.277
  Fold change PRRT3-AS1 (NR_046734): 3.902
  Fold change RBP3 (NM_002900): 0.356
  Fold change SEPT14 (NM_207366): 0.218
  Fold change SERPINA12 (NM_001304461): 0.356
  Fold change SLC13A4 (NM_012450): 2.153
  Fold change SPOCK2 (NM_001244950): 2.181
  Fold change TSPAN1 (NM_005727): 3.938
  Fold change USP12-AB1 (NR_046647): 2.362
  Fold change VIPR†-AS1 (NR_046654): 0.356
  Fold change XIRP1 (NM_001198621): 0.356
  Fold change ZFP69B (NM_023070): 2.299
  Fold change ZNF432 (NM_014650): 5.290
  Fold change ZNF487 (NR_026693): 0.356

## CC(C)=O [Acetone, acetone]
[1]; BEAS-2B, 48 hours, MTT
  concentration (105) providing a survival rate (viability) of 95%: 5380 µM
  concentration (1020) providing a survival rate (viability) of 80%: 71900 µM
[2]; [3]
  Fold change ADRA2A (NM_000681): 0.179
  Fold change ATRNL1 (NR_074088): 3.000
  Fold change C12orf79 (NR_046159): 0.213
  Fold change C14orf80 (NR_046159): 0.354
  Fold change CALML3 (NM_001286399): 0.354
  Fold change CCDC184 (NM_001013635): 12.166
  Fold change CD37 (NM_001040031): 2.781
  Fold change CDHR1 (NM_001171971): 0.409
  Fold change CHL1 (NM_001253387): 0.224
  Fold change COL4A3 (NM_000091): 4.046
  Fold change CRLF2 (NM_022148): 0.355
  Fold change CSF3R (NM_172313): 0.354
  Fold change DNMBP-AS1 (NR_024130): 2.455
  Fold change EGR1 (NM_001964): 0.422
  Fold change GNA14 (NM_004297): 5.492
  Fold change LOC728752 (NR_036504): 4.554
  Fold change PAX8 (NM_003466): 2.753
  Fold change PRRT3-AS1 (NR_046734): 2.261
  Fold change RBP3 (NM_002900): 0.354
  Fold change SEPT14 (NM_207366): 0.214
  Fold change SERPINA12 (NM_001304461): 0.354
  Fold change SLC13A4 (NM_012450): 10.528
  Fold change SPOCK2 (NM_001244950): 5.291
  Fold change TSPAN1 (NM_005727): 5.935
  Fold change USP12-AB1 (NR_046647): 3.620
  Fold change VIPR†-AS1 (NR_046654): 0.354
  Fold change XIRP1 (NM_001198621): 0.354
  Fold change ZFP69B (NM_023070): 2.708
  Fold change ZNF432 (NM_014650): 4.647
  Fold change ZNF487 (NR_026693): 0.354
[2]; [4]
  Fold change ADRA2A (NM_000681): 0.355
  Fold change ATRNL1 (NR_074088): 2.751
  Fold change C12orf79 (NR_046159): 0.213
  Fold change C14orf80 (NR_046159): 0.354
  Fold change CALML3 (NM_001286399): 0.354
  Fold change CCDC184 (NM_001013635): 4.927
  Fold change CD37 (NM_001040031): 2.526
  Fold change CDHR1 (NM_001171971): 0.429
  Fold change CHL1 (NM_001253387): 0.360
  Fold change COL4A3 (NM_000091): 2.490
  Fold change CRLF2 (NM_022148): 0.357
  Fold change CSF3R (NM_172313): 0.358
  Fold change DNMBP-AS1 (NR_024130): 5.285
  Fold change EGR1 (NM_001964): 0.437
  Fold change GNA14 (NM_004297): 2.289
  Fold change LOC728752 (NR_036504): 4.939
  Fold change PAX8 (NM_003466): 5.800
  Fold change PRRT3-AS1 (NR_046734): 2.061
  Fold change RBP3 (NM_002900): 0.376
  Fold change SEPT14 (NM_207366): 0.214
  Fold change SERPINA12 (NM_001304461): 0.354
  Fold change SLC13A4 (NM_012450): 12.386
  Fold change SPOCK2 (NM_001244950): 5.054
  Fold change TSPAN1 (NM_005727): 2.949
  Fold change USP12-AB1 (NR_046647): 6.910
  Fold change VIPR†-AS1 (NR_046654): 0.354
  Fold change XIRP1 (NM_001198621): 0.354
  Fold change ZFP69B (NM_023070): 4.454
  Fold change ZNF432 (NM_014650): 5.319
  Fold change ZNF487 (NR_026693): 0.354
